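1) Cells in 96-well plates. 2) Compound, 48 h, 5 concentrations. 3) Linear interpolation between surrounding doses. 4) Unreached endpoint = highest concentration. GI50 = concentration required for 50% inhibition of growth. Definition used: TGI = concentration required for complete inhibition of growth.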 Bounds are passed on as bounds.

Test in all cases: NCI tumour cell line growth inhibition, 48 h
For test [1], the system named is OVCAR-4 ovarian.
Test [2] has as its system OVCAR-5 ovarian.
Test [3] deals with OVCAR-3 ovarian.
Test [4] relates to HCT-116 colon.
For test [5], the system named is A498 renal.
The subject of test [6] is CCRF-CEM leukemia.
Test [7] deals with SR leukemia.
In test [8] the test system is EKVX NSCLC.
Test [9] relates to SK-MEL-5 melanoma.
Test [10] concerns UACC-257 melanoma.

For `N#Cc1ncn(-c2ccccc2)c1N`, the TGI in test [1], in test [2], in test [3], in [4], in [5] and in test [6] was > 100 µM throughout. In addition, the TGI in test [7], in test [8], in test [9] and in test [10] was > 100 µM each time.
In the case of `CCC1(OC(=O)CN2CCN(CCO)CC2)C(=O)OCc2c1cc1n(c2=O)Cc2cc3ccccc3nc2-1` (stereo not given), the TGI in test [1] amounted to 17 µM; in [2] it was 7.6 µM; in test [3] it was 3.81 µM; in [4], 3.35 µM; in [5], 1.78 µM; in test [6] it was 0.451 µM. In addition, the TGI in [7] amounted to 0.305 µM; in test [8] it was 55.9 µM; in test [9], 1.15 µM; in test [10], 8.05 µM.
In the case of `CCOC(=O)C1(Cc2ccccc2)Cc2cc3c(cc2C1)CCC3`, the TGI is 98.4 µM in [1]; 66.3 µM in [2]; > 100 µM in [3]; > 100 µM in [4]; > 100 µM in test [5]; 36.6 µM in [6]. For the same molecule, the TGI was 65.1 µM in [7], > 100 µM in test [8] and > 100 µM in test [10].
Consider `OC1c2ccccc2[C@@H]2[C@H]1[C@@H](c1ccccc1)C1(Cc3ccccc3C1O)[C@H]2c1ccccc1` (stereo not given in full), for which the TGI in [1] is 17.4 µM; in test [2] it was 23.2 µM; in test [3], 6.27 µM; in test [4], 14.5 µM; in [5] it was 23.6 µM; in test [6], 12.7 µM. Further, the TGI was found to be 4.49 µM in test [7], 19.2 µM in test [8], 18.2 µM in [9] and 11.1 µM in test [10].
For the molecule `O=C(NCCN1C(=O)CN=C(c2ccc(Cl)cc2)c2cc(Cl)ccc21)OCc1ccccc1`, the TGI in [1] is 22.6 µM; in test [2] it was 49.7 µM; in test [3], 26 µM; in test [4], 24.8 µM; in [5], 24.5 µM; in test [6] it was 63.1 µM. The TGI in test [7] was 33.3 µM; in test [8], 66.6 µM; in test [9] it was 30.2 µM; in test [10] it was 34.1 µM.
For `O=S(=O)(c1cc(Cl)ccc1Cl)N1CCN(c2ccc(Cl)c(Cl)c2)CC1`, the TGI is 32.4 µM in [1]; > 100 µM in test [2]; 38.5 µM in test [3]; > 100 µM in [4]; 56.8 µM in test [5]; > 100 µM in test [6]. Moreover, the TGI in test [7] was > 100 µM; in test [8] it was > 100 µM; in [9], 51.5 µM; in [10], 92.7 µM.
Regarding `CCN(CC)CCNC(=O)c1ccc([N+](=O)[O-])cc1OC`, the TGI in [1], in [2], in [3], in test [4], in test [5] and in [6] was > 100 µM throughout. Also, the TGI in [7], in test [8], in [9] and in test [10] was > 100 µM throughout.
On to `COc1cc([C@@H]2c3cc4c(cc3[C@H](OC3OC5COC(C(C)C)OC5C(O)C3O)C3COC(=O)[C@@H]32)OCO4)cc(OC)c1O` (stereo not given in full), for which the TGI in test [1] is 37.6 µM; in test [2], 25 µM; in test [3], 24.4 µM; in test [4], 13.5 µM; in test [5], 22.8 µM; in test [6] it was > 100 µM. For the same molecule, the TGI in test [7] was > 100 µM; in test [8], 47.5 µM; in [9] it was 22.6 µM; in test [10], 22.3 µM.
Turning to `CC(O)c1c2c(cc3c1CC1(C3)Cc3cc4c(c(C(C)O)c3C1)CCC4)CCC2` (stereo not given), the TGI in test [1] worked out at 17.5 µM; in [2], 50.2 µM; in test [3], 29.4 µM; in test [4] it was 24.8 µM; in test [5] it was 29 µM; in test [6] it was 22.1 µM. Besides, the TGI amounted to 29.8 µM in test [7], 96.2 µM in test [8], 25.6 µM in test [9] and 31.7 µM in test [10].
Consider `N#Cc1cccc(C2ON=C(c3ccc([N+](=O)[O-])cc3)N2C23CC4CC(CC(C4)C2)C3)c1` (stereo not given), for which the TGI in [1] is 76.8 µM; in test [2], 31 µM; in test [3], > 100 µM; in [4], > 100 µM; in test [5] it was > 100 µM; in test [6], > 100 µM. Further, the TGI in test [7], in test [8], in test [9] and in test [10] was > 100 µM in each case.
`Cc1cn(CC2=NCCN2)c(=O)[nH]c1=O`: the TGI in [1], in test [2], in test [4], in test [5], in test [6] and in test [7] was > 100 µM each time. Besides, the TGI in test [8], in test [9] and in test [10] was > 100 µM each time.
Consider `Cc1c(NC(=O)C(=O)N=NC(=O)c2ccncc2)c(O)c2ccccc2c1O`, for which the TGI in [1] is 27.5 µM; in [2], 30.8 µM; in test [3], 29.1 µM; in test [4] it was 30.1 µM; in [5], 43.5 µM; in test [6], > 87 µM. Further, the TGI in test [7] is > 36.4 µM; in test [8], 19.9 µM; in test [9], 5.8 µM; in test [10], 24.2 µM.
Take `O=C1NCC2(CCNCC2)N1c1ccccc1`: the TGI in [1], in test [2], in [3], in test [4], in [5] and in test [6] was > 100 µM throughout. In addition, the TGI in [7], in test [8], in test [9] and in test [10] was > 100 µM throughout.
As to `COc1ccc(/C=C2\CN(C(=O)CCN3CCC(=NO)CC3)C/C(=C\c3ccc(OC)cc3)C2=O)cc1`, the GI50 in test [1] is 3.34 µM; in test [2], 1.83 µM; in test [3] it was 1.89 µM; in [4] it was 1.74 µM; in test [5], 1.6 µM; in test [6], 3.05 µM. Also, the GI50 in test [7] is 0.616 µM; in test [8], 4.04 µM; in test [9] it was 1.82 µM; in [10] it was 2.65 µM. Further, the TGI in test [1] stood at 17.7 µM; in test [2], 3.92 µM; in test [3], 3.56 µM; in [4], 3.23 µM; in test [5], 3.2 µM; in test [6] it was 18.9 µM. The TGI in [7] worked out at 29.1 µM; in [8], 17.6 µM; in [9], 3.29 µM; in test [10] it was 7.57 µM.
On to `CCOc1cc(/C=N\N(C)C)cc(/C=N\N(C)C)c1O`, for which the TGI in test [1], in test [2], in [3], in test [4], in [5] and in test [6] was > 100 µM each time. Moreover, the TGI in test [7] is > 100 µM; in [8], > 100 µM; in [9], 73.2 µM; in [10], > 100 µM.
As for `COCCOCN(C(=O)C1=CCC2(CC1)OCCO2)c1ccccc1I`, the TGI in [1], in [2], in test [3], in [4], in test [5] and in test [6] was > 50 µM each time. The TGI in test [7], in [8], in test [9] and in test [10] was > 50 µM each time.
For `Clc1ccccc1/C=C/c1nsc(/C=C/c2ccccc2Cl)n1`, the TGI in test [1], in test [2], in test [3], in test [4], in [5] and in [6] was > 100 µM throughout. Moreover, the TGI was 55.6 µM in [7], > 100 µM in test [8], > 100 µM in test [9] and 64.1 µM in test [10].
Regarding `CC(C)(C)c1cc(C(=O)/C=C/c2ccc(O)c(O)c2O)cc(C(C)(C)C)c1O`, the TGI in [1] was 26.5 µM; in [2] it was 39.1 µM; in test [3], > 100 µM; in [4] it was 12.7 µM; in test [5] it was 34.4 µM; in [6], 7.84 µM. Moreover, the TGI was 4.67 µM in [7], 54 µM in [8], 19 µM in [9] and 10.6 µM in [10].
`CC[C@@H](CCCC[C@@H]1CC[C@H]2CC(=O)C[C@@H]12)OC`: the TGI in test [1], in [2], in test [3], in test [4], in test [5] and in [6] was > 100 µM throughout. In addition, the TGI in [7], in test [8], in test [9] and in test [10] was > 100 µM throughout.
For the molecule `COc1ccc(NC(=O)CC(=O)n2nc(C)c(N=Nc3ccc(C)c(C)c3)c2C)cc1`, the TGI in test [1], in test [2], in test [3], in [4], in [5] and in test [6] was > 100 µM each time. For the same molecule, the TGI in test [7] is > 100 µM; in test [8], 52 µM; in test [9], > 100 µM.
For the molecule `Cc1nc(-c2ccccc2)c(C)n2c1nc1ccccc12`, the TGI is > 100 µM in [1]; > 100 µM in [2]; 54.8 µM in test [3]; > 100 µM in test [4]; > 100 µM in test [5]; > 100 µM in test [6]. Besides, the figures for the TGI in [7], in test [8] and in [10] were 56.2 µM, > 100 µM and > 100 µM, respectively.
For the molecule `COc1ccc2c(c1)c1nn(CCN(C)C)c3ccc4c(=O)n(CCN(C)C)c(=O)n2c4c13`, the TGI in test [1] worked out at 0.0645 µM; in test [2], 0.44 µM; in test [3], 0.255 µM; in test [4] it was 0.294 µM; in test [5], 0.526 µM; in test [6], 0.107 µM. Besides, the TGI in test [7] came to 0.0522 µM; in test [8], 0.405 µM; in [9], 0.784 µM; in test [10] it was 0.717 µM.
For the molecule `CC1=C2C(=O)O[C@@H](c3ccoc3)[C@]2(C)CCC1=O`, the TGI in test [2], in test [3], in test [4], in test [5], in test [6] and in [7] was > 100 µM in each case. The TGI in test [8], in [9] and in test [10] was > 100 µM throughout.
Take `O=C(O)c1cccc(S(=O)(=O)NN2C(=O)CSC2c2ccccc2)c1` (stereo not given): the TGI in test [2], in test [3], in test [4], in [5], in test [6] and in test [7] was > 100 µM each time. For the same molecule, the TGI in test [8], in [9] and in [10] was > 100 µM in each case.
With `CCOc1ccc(N2C(=O)C3c4[nH]c5ccccc5c4C4CCC(C(C)(C)C)CC4C3C2=O)cc1` (stereo not given), the TGI in test [1], in test [4], in test [5], in [6], in test [7] and in test [8] was > 100 µM in each case. Further, the TGI in [9] and in [10] was > 100 µM each time.
On to `CCOc1ccc2ccccc2c1NC1=NCCO1`, for which the TGI is > 100 µM in test [1]; > 100 µM in test [2]; > 100 µM in test [4]; 93.8 µM in [5]; > 100 µM in [6]; > 100 µM in [7]. Also, the TGI in test [8], in test [9] and in test [10] was > 100 µM each time.
For the molecule `Cc1cc(C)c(S(=O)(=O)N[C@@H](/C=C(\Br)CO)C(C)C)c(C)c1`, the TGI in test [2] is > 100 µM; in test [3], 51.8 µM; in test [4], > 100 µM; in test [5], 68 µM; in test [6], 90.1 µM; in [7], 68.8 µM. In addition, the TGI in test [8] is > 100 µM; in test [9] it was 30.5 µM; in test [10] it was 54.6 µM.

For the origin of these results see PubChem BioAssay (NCI).
